Key:
[1] = biological target: KRAS^G12C (Homo sapiens, UniProt P01116, G12C); experiment: KRAS^G12C degradation in homozygous MIA PaCa-2 cells; assay type: cell-based; parameters: endogenous in cells; host or cells: MIA PaCa-2; settings: homozygous MIA PaCa-2 cells (FIG. 4B)
[2] = biological target: T1, KRAS^G13D (Homo sapiens, UniProt P01116, G13D); experiment: KRAS degradation by immunoblot in HCT 116 cells (specificity); assay type: cell-based; settings: up to 10 μM
T1 construct: endogenous in cells; host or cells: HCT116
T1 sequence (P01116 1-188 isoform P01116-2 G13D): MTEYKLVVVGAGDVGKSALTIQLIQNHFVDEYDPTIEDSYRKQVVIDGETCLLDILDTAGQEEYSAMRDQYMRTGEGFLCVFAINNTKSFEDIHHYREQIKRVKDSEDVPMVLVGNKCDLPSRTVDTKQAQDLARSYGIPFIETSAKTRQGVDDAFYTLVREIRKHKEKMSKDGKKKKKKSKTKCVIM
Description: MRTX is known to be selective for mutant KRAS^G12C over other KRAS mutants (Hallin et al. 2020). To explore the specificity of LC-2, KRAS degradation was examined in HCT 116 cells, which harbor a heterozygous KRAS^G13D mutation.
NCI-H2030 (CRL-5914), MIA PaCa-2 (CRL-1420), NCI-H23 (CRL-5800), NCI-H358 (CRL-5807), and HCT-116 (CCL-247) cells were obtained from ATCC, expanded immediately, and frozen down. Vials were thawed and used within 20 passages. SW1573 cells were a gift from Arvinas and were handled in the same manner. […]
Cell lysates were clarified at 21000×g for 15 mins at 4° C. Protein levels were quantified using a 50:1 mixture of bicinchoninic acid solution (Millipore Sigma; cat. no. B9643) and 4% (w/v) copper(II) sulfate solution (Millipore Sigma; cat. no. C2284) incubated at 37° C. for 30 mins. Absorbance values at 560 nm were read on an EnVision 2101 Multilabel Reader (PerkinElmer). […]
Band intensities were quantified using BioRad's Image Lab Software. Total KRAS levels were examined by quantifying levels of both conjugated KRAS^G12C and unbound KRAS (wt or mutant) using an analysis box that spanned the two bands. This same sized box was used to quantify unbound KRAS in DMSO treated samples to account for background, except for LC-2 Epimer in FIGS. 6A and 6B. […]

[3] = biological target: T2, KRAS^G12D (Homo sapiens, UniProt P01116, G13D); experiment: KRAS^G12D degradation in HCT116 cells (specificity); assay type: cell-based; settings: HCT116 cells (FIG. 3B)
T2 construct: KRAS degradation was examined in HCT 116 cells, which harbor a heterozygous KRAS^G13D mutation; endogenous in cells; host or cells: HCT116
T2 sequence (P01116 1-185 isoform P01116-2 G13D): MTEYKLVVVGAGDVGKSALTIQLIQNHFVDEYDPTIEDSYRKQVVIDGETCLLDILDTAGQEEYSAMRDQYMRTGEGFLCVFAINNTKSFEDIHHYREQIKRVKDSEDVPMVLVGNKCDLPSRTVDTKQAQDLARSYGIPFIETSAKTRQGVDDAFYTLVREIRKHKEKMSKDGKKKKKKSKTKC

[4] = tested on: pErk
Description: The ability of LC-2 to modulate Erk signaling was investigated in NCI-H2030 and NCI-H23 cells during a 24 hour dose response.
Signaling kinetics were monitored during a 24 hour time course in MIA PaCa2, NCI-H23, and SW1573 cells treated with 2.5 μM LC-2.
NCI-H2030 (CRL-5914), MIA PaCa-2 (CRL-1420), NCI-H23 (CRL-5800), NCI-H358 (CRL-5807), and HCT-116 (CCL-247) cells were obtained from ATCC, expanded immediately, and frozen down. Vials were thawed and used within 20 passages. SW1573 cells were a gift from Arvinas and were handled in the same manner. NCI-H2030, NCI-H23, and NCI-H358 were cultured in RPMI (ATCC30-2001) supplemented with 10% FBS (Biological Industries; cat. no. S1480) and 1% Penicillin-Streptomycin (ThermoFisher; cat. no. 15140122). HCT-116 cells were maintained in high glucose DMEM (ThermoFisher; cat. no. 11965084) supplemented as above. MIA PaCa-2 cells were cultured in high glucose DMEM supplemented with 10% FBS, 2.5% horse serum (ThermoFisher; cat. no. 26050-088; lot 2109875), and 1% Penicillin-Streptomycin. SW1573 cells were maintained in DMEM/F12 Nutrient Mix with GlutaMAX supplement (ThermoFisher; cat. no. 10565018) with 10% FBS and 1% Penicillin-Streptomycin added. DPBS (ThermoFisher; cat. no. 14190250) was used to wash cells and 0.25% Trypsin-EDTA (ThermoFisher; cat. no. 252000-056) was used to detach cells for passaging. […] The VHL ligand was generously provided by Arvinas.
Between 2.5×10^5 and 6.0×10^5 cells were seeded into 6-well plates (Corning; cat. no. 353046). The next day, media was removed and cells were treated with 2.5 μM LC-2 for 1, 2, 4, 8, 12, or 24 hours. […]

KRAS^G12C, sequence (P01116 1-188 isoform P01116-2 G12C): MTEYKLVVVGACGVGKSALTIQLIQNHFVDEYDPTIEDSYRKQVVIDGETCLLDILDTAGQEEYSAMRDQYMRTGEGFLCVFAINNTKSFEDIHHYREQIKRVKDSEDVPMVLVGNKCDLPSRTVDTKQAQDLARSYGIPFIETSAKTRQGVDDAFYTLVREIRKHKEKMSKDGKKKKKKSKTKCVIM

## C=C(F)C(=O)N1CCN(c2nc(OC[C@@H]3CCCN3CCCOCCC(=O)N[C@H](C(=O)N3C[C@H](O)C[C@H]3C(=O)NCc3ccc(-c4scnc4C)cc3)C(C)(C)C)nc3c2CCN(c2cccc4cccc(Cl)c24)C3)C[C@@H]1CC#N [LC-2, (2S,4R)-1-((S)-2-(3-(3-((S)-2-(((7-(8-chloronaphthalen-1-yl)-4-((S)-3-(cyanomethyl)-4-(2-fluoroacryloyl)piperazin-1-yl)-5,6,7,8-tetrahydropyrido[3,4-d]pyrimidin-2-yl)oxy)methyl)pyrrolidin-1-yl)propoxy)propanamido)-3,3-dimethylbutanoyl)-4-hydroxy-N-(4-(4-methylthiazol-5-yl)benzyl)pyrrolidine-2-carboxamide]
[1]
  induction of KRAS^G12C degradation: induces KRAS^G12C
[2]
  engagement or degradation of KRAS^G13D: No engagement or degradation
[3]
  degradation of KRAS^G12D: does not degrade KRAS^G12D
[4]; NCI-H23, 2.5 μM LC-2, 6 and 24 hours
  pErk: suppressed
[4]; NCI-H23, 24 hour dose response
  pErk signaling: dose-dependent decrease in pErk
  total Erk levels: elevated in a dose-dependent manner
